Like-named read-outs stand apart in the source and are kept apart here. Square brackets hold non-standard residues; d marks the D form. Ends that are not written are not given here. Peptide text beside a SMILES is read from it. pY = N[C@@H](Cc1ccc(OP(=O)(O)O)cc1)C(=O)O
Legend:
DLAR D2 = biological target: T1, DLAR D2 (Drosophila melanogaster, UniProt P16621); experiment: Peptide preference of the DLAR D2 domain from ratios of kcat/Km (D1D2 vs D1); format: biochemical; conditions: order of peptide substrates, from comparison of kcat/Km of D1D2 with D1
T1 construct: DLAR 1728-2029; His tag (pET-15b or pET-22b); made in house; host or cells: E. coli BL21(DE3)
T1 sequence (P16621 1728-2029): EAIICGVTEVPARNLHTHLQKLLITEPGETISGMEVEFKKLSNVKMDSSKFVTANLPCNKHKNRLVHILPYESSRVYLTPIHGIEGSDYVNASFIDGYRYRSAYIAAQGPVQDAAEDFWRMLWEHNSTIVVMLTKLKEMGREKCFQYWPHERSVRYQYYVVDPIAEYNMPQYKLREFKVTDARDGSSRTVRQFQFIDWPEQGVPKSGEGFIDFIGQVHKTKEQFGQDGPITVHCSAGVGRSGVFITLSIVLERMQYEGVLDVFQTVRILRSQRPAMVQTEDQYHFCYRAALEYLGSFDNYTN
Procedure: (§1) Phosphatase activity of the recombinant PTP domains was determined by using para-Nitrophenylphosphate (pNPP), a small molecule generic substrate, as well as phosphotyrosine containing peptides. The pNPP assay was performed as reported previously, with a modification in the buffer composition (25 mM Citrate, Glycine and HEPES (CGH), pH 6.5, 100 mM NaCl and 2 mM DTT). Phosphatase activity with the phosphotyrosine peptides was ascertained by the malachite green reaction as described for PTPs previously. Briefly, the reaction mixture comprised of 0.01 µM protein incubated with increasing concentrations of different peptides in 25 mM citrate buffer pH 6.0, 100 mM NaCl and 2 mM DTT for 15 min at 25°C. The reaction was stopped by the addition of the Biomol Green reagent (Enzo Life Sciences) and the colour developed after 20 min was quantified at 650 nm. For all the assays, kinetic constants for the steady state catalysis were obtained by fitting the reaction curves to the Michaelis-Menten equation using the nonlinear regression module of Sigma plot software (Systat Software, Inc.).
(§2) The difference between the most and least preferred substrate in the case of DLAR D1D2 was much less (∼16.0×10^4 sec^−1 M^−1 between Cuticle and Myospheroid peptides) when compared to DLAR D1 alone (∼130.0×10^4 sec^−1 M^−1 between Insulin Receptor and Abelson peptides). […] A more comprehensive study of this activation mechanism is being reported elsewhere.

PTP99A D1 = biological target: T2, PTP99A D1 (Drosophila melanogaster, UniProt P35832); experiment: Dephosphorylation of phosphotyrosine peptides (malachite green), PTP99A D1; conditions: for Vmax / Kcat / Kcat/Km / Km: 0.01 µM protein; for Vmax: 25 mM citrate buffer pH 6.0, 100 mM NaCl, 2 mM DTT, 15 min at 25°C, Biomol Green, 650 nm, Michaelis-Menten fit; for Kcat / Kcat/Km / Km: 25 mM citrate pH 6.0, 15 min at 25°C, malachite green; for peptide preference: order of peptide substrates
T2 sequence (P35832 450-756): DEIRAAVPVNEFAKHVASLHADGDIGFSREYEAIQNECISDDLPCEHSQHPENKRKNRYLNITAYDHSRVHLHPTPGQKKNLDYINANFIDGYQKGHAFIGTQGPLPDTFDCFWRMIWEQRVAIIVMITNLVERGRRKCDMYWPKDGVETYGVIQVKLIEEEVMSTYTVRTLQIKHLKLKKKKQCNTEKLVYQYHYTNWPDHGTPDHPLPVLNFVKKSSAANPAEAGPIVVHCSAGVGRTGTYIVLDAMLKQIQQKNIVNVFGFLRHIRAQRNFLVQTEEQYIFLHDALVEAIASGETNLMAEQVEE
From the text: (§3) Substrates of PTPs characterized thus far include the activation loop segments of various kinases and regulatory loops of other signaling proteins. Suitably designed peptide substrates mimic the physiologically relevant substrates of PTPs. In the present study, peptide substrates were designed for DLAR for which more information was available on its interacting partners. […] The five peptides were chosen based on their distinct charge distributions around the central phosphotyrosine residue. The phosphorylated as well as non-phosphorylated peptides were obtained from GL Bioscience, China. The peptides were >95% pure and were used after a single round of desalting using a Sephadex G25 column (GE Healthcare). The concentration of the peptide samples for biochemical studies was ascertained by UV absorption at 268 nm for the pY residue.
as §1

DLAR D1 D2HSS = biological target: T3, DLAR D1 D2HSS (Drosophila melanogaster, UniProt P16621, C1961S); format: biochemical; conditions: 0.01 µM protein; for Vmax: 25 mM citrate buffer pH 6.0, 100 mM NaCl, 2 mM DTT, 15 min at 25°C, Biomol Green, 650 nm, Michaelis-Menten fit; for Kcat / Kcat/Km / Km: 25 mM citrate pH 6.0, 15 min at 25°C, malachite green
T3 construct: DLAR 1448-2029; His tag (pET-15b or pET-22b); made in house; host or cells: E. coli BL21(DE3)
From the text: as §3, §1

PTP99A D1D2 = biological target: T4, PTP99A D1D2 (Drosophila melanogaster, UniProt P35832); experiment: Dephosphorylation of phosphotyrosine peptides (malachite green), PTP99A D1D2; conditions: for Vmax / Kcat / Kcat/Km / Km: 0.01 µM protein; for Vmax: 25 mM citrate buffer pH 6.0, 100 mM NaCl, 2 mM DTT, 15 min at 25°C, Biomol Green, 650 nm, Michaelis-Menten fit; for Kcat / Kcat/Km / Km: 25 mM citrate pH 6.0, 15 min at 25°C, malachite green; for substrate preference: order of peptide substrates, PTP99A D1D2
T4 sequence (P35832 450-1050): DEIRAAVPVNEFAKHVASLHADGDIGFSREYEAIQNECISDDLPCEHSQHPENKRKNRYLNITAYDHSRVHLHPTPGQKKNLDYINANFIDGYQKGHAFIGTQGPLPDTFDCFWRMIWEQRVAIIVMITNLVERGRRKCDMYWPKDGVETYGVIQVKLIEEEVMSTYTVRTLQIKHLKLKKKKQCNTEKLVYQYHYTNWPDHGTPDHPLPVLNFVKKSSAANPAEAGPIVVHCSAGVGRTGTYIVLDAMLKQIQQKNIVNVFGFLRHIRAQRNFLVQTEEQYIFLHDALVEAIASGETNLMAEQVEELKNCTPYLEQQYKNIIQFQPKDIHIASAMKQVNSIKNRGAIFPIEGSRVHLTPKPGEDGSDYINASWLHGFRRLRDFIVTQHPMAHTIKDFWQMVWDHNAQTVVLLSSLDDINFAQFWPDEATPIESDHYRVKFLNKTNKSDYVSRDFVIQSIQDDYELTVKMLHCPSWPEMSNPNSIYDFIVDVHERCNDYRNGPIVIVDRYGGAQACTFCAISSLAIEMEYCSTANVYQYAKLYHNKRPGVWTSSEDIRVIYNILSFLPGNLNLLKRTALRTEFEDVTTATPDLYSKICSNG
From the text: as §3, §1

PTP99A D2 = biological target: T5, PTP99A D2 (Drosophila melanogaster, UniProt P35832); experiment: Peptide preference of the PTP99A D2 domain from ratios of kcat/Km (D1D2 vs D1); format: biochemical; conditions: order of peptide substrates, from comparison of kcat/Km of D1D2 with D1
T5 sequence (P35832 740-1050): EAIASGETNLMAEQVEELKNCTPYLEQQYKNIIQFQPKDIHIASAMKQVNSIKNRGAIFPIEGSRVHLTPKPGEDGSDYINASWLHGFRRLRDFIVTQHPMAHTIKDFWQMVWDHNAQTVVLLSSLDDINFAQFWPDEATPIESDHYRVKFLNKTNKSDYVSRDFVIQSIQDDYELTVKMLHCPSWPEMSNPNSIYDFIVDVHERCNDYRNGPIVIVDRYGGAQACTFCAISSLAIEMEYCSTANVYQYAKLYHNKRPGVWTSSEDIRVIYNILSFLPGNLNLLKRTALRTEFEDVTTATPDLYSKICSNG
Procedure: as §1, §2

T3 sequence (P16621 1448-2029 C1961S): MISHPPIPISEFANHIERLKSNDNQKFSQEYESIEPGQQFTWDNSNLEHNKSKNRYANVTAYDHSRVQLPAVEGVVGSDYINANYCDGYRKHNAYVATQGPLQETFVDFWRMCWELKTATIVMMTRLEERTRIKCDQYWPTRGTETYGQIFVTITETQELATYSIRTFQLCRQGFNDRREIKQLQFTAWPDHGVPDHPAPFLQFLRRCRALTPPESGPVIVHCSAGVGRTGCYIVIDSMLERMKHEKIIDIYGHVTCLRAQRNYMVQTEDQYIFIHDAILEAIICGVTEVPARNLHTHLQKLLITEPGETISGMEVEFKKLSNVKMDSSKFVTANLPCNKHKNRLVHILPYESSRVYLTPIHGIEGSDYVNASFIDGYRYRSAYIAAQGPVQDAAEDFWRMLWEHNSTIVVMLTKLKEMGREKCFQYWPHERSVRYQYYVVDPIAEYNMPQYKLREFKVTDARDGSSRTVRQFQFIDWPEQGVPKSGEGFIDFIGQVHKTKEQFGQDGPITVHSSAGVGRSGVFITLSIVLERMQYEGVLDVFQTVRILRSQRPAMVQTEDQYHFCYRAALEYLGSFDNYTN

Compound	peptide preference (DLAR D2)	Vmax (PTP99A D1) [µmol/min/mg]	Kcat (PTP99A D1) [s⁻¹]	Kcat/Km (PTP99A D1)	Km (PTP99A D1) [µM]	peptide preference (PTP99A D1; PTP99A D1 domain)	Vmax (DLAR D1 D2HSS) [µmol/min/mg]	Kcat (DLAR D1 D2HSS) [s⁻¹]	Kcat/Km (DLAR D1 D2HSS)	Km (DLAR D1 D2HSS; read-out: Km) [µM]	Vmax (PTP99A D1D2) [µmol/min/mg]	Kcat (PTP99A D1D2) [s⁻¹]	Kcat/Km (PTP99A D1D2)	Km (PTP99A D1D2) [µM]	substrate preference (PTP99A D1D2)	peptide preference (PTP99A D2)	Km (DLAR D1 D2HSS) [µM]	difference between the most and least preferred substrate (kcat/Km) (PTP99A D1; PTP99A D1 domain, between Abelson peptide and Insulin Receptor peptides) [M⁻¹ s⁻¹]
VIGD[pY]VCRLCK (cysteine pairing not given here) [Nervous Fingers peptide, phosphotyrosine peptide VIGDpYVCRLCK from PeptideMine server, obtained from GL Bioscience, >95% pure]	Insulin Receptor peptide>Nervous fingers peptide>Cuticle peptide>Myospheroid peptide>Abelson peptide	4.42 ± 0.14	2.94 ± 0.10	21.61 ± 0.24 x 10^2 sec^-1M^-1	1360 ± 94.7	Abelson peptide>Cuticle peptide>Nervous fingers peptide>Myospheroid peptide>Insulin receptor peptide	7.9 ± 0.35	9.42 ± 0.42	7.02 ± 0.07 x 10^4 sec^-1M^-1	134 ± 14.9	8.89 ± 0.38	11.01 ± 0.46	6.12 ± 0.12 x 10^4 sec^-1M^-1	180 ± 15	Insulin Receptor peptide>Cuticle peptide>Myospheroid>Abelson peptide>Nervous fingers peptide	Nervous fingers peptide>Abelson peptide>Cuticle peptide>Myospheroid peptide>Insulin receptor peptide		
CDDS[pY]FGNKC (cysteine pairing not given here) [Myospheroid peptide, phosphotyrosine peptide CDDSpYFGNKC from PeptideMine server, obtained from GL Bioscience, >95% pure]	Insulin Receptor peptide>Nervous fingers peptide>Cuticle peptide>Myospheroid peptide>Abelson peptide	2.72 ± 0.13	1.81 ± 0.08	20.40 ± 0.59 x 10^2 sec^-1M^-1	887 ± 102	Abelson peptide>Cuticle peptide>Nervous fingers peptide>Myospheroid peptide>Insulin receptor peptide	3.11 ± 0.12	3.7 ± 0.15	5.79 ± 0.08 x 10^4 sec^-1M^-1	63.9 ± 7.99	1.09 ± 0.03	1.35 ± 0.03	44.1 ± 1.22 x 10^4 sec^-1M^-1	3.06 ± 0.36	Insulin Receptor peptide>Cuticle peptide>Myospheroid>Abelson peptide>Nervous fingers peptide	Nervous fingers peptide>Abelson peptide>Cuticle peptide>Myospheroid peptide>Insulin receptor peptide		
CC(C)C[C@H](NC(=O)[C@H](C)NC(=O)CNC(=O)[C@H](Cc1ccc(OP(=O)(O)O)cc1)NC(=O)[C@H](CC(=O)O)NC(=O)[C@@H]1CCCN1C(=O)[C@H](CCC(=O)O)NC(=O)[C@H](C)NC(=O)[C@@H](N)[C@@H](C)O)C(=O)N[C@@H](Cc1ccc(O)cc1)C(=O)N[C@@H](CCC(=O)O)C(=O)O [Cuticle peptide] (H-TAEPD[pY]GALYE-OH)																	162 ± 13.8	
RDDT[pY]TAHAG [Abelson peptide, phosphotyrosine peptide RDDTpYTAHAG from PeptideMine server, obtained from GL Bioscience, >95% pure]	Insulin Receptor peptide>Nervous fingers peptide>Cuticle peptide>Myospheroid peptide>Abelson peptide	0.83 ± 0.05	0.55 ± 0.04	45.19 ± 0.29 x 10^2 sec^-1M^-1	122 ± 26.6	Abelson peptide>Cuticle peptide>Nervous fingers peptide>Myospheroid peptide>Insulin receptor peptide	0.6 ± 0.01	0.72 ± 0.01	5.82 ± 0.07 x 10^4 sec^-1M^-1	12.4 ± 1.07	2.59 ± 0.07	3.21 ± 0.08	19.97 ± 0.15 x 10^4 sec^-1M^-1	16.3 ± 1.55	Insulin Receptor peptide>Cuticle peptide>Myospheroid>Abelson peptide>Nervous fingers peptide	Nervous fingers peptide>Abelson peptide>Cuticle peptide>Myospheroid peptide>Insulin receptor peptide		~3000
